{"source": "patent US5527940A", "about": "“Methanediphosphonate derivative, its manufacturing process and its pharmaceutical applications” (Toray Industries, Inc., priority 1991, dated 1996)", "test_system": "IL-1 stimulated release of proteoglycan from cartilage cells", "assay": "Proteoglycan release from IL-1 stimulated rabbit knee joint cartilage cells (35S label)", "assay_type": "cell-based, New Zealand White rabbits", "details": "100 μM compound, IL-1β 30 units/ml, 24 hours", "description": "When cartilage from a rabbit knee joint is isolated and cultured followed by IL-1 stimulation, proteoglycan of glycoprotein, the major component of cartilage, is released. The IL-1 inhibitory action of compounds of the present invention was measured as described below using this action as an index.\nExsanguination was performed on 3 week old, male New Zealand White rabbits having body weights of 250-300 g under diethyl ether anesthesia, after which the knee joints were removed. The cartilage portions of the knee joints were removed with a scalpel and immersed in a CMF solution comprising 0.14M sodium chloride, 4 mM potassium chloride, 0.4 mM sodium dihydrogen phosphate, 12 mM sodium bicarbonate, 0.2 mM potassium dihydrogen phosphate and 11 mM glucose. This cartilage was then placed in 0.1% EDTA and incubated for 20 minutes at 37° C. […]\nThe cell layer was dissolved by adding 200 μg of pronase E and treating for 24 hours at 37° C. […] The precipitated proteoglycan was collected in a glass filter, added to a liquid scintillator and counted with a liquid scintillation counter. […]\nEach of the resulting counts were expressed as a percentage of the count obtained from the initially added inorganic sulfuric acid. […]", "data": [{"smiles": "CSc1ccc(SC(P(=O)(O)O)P(=O)(O)O)cc1", "note": "[Example 2, (4-methylthiophenyl)thiomethanediphosphonic acid]", "values": [{"measurement": "Proteoglycan count, Cell Layer (percentage of the count from initially added inorganic sulfuric acid)", "setting": "cell layer", "result": "0.28 ± 0.019", "unit": "%"}, {"measurement": "Proteoglycan count, Cell Supernatant (percentage of the count from initially added inorganic sulfuric acid)", "setting": "cell supernatant", "result": "0.74 ± 0.061", "unit": "%"}]}]}
